Test results taken from patent US11008313B2, “Substituted 1-methyl-1,2,3,4-tetrahydroisoquinoline molecules as PCSK9 allosteric binders” (Merck Sharp & Dohme Corp., priority 2016, dated 2021).

How the values were obtained:
[1] = molecular target: T1, PCSK9 (Homo sapiens, UniProt Q8NBP7); experiment: Differential scanning calorimetry (DSC) assay, direct binding / thermal stabilization of PCSK9; conditions: Tm(with compound)−Tm(no compound); 2 μM PCSK9, 300 μM test compound
Method: Differential scanning calorimetry (DSC) was used as a biophysical method to confirm direct binding to PCSK9. A solution containing 2 μM PCSK9 with or without 300 μM test compound in 25 mM HEPES (pH 7.5)/150 mM NaCl/1 mM CaCl2/3.75% DMSO was transferred to the sample cell of the DSC instrument, while buffer alone was placed in the reference cell. Both cells were heated at a constant rate (200° C./hr) from 20-80° C. while recording the excess heat capacity of the sample cell relative to the reference cell. Each thermogram was analyzed to provide the melting temperature (Tm) of the protein.
The higher the temperature shift generally, the higher the affinity.

[2] = molecular target: T1, PCSK9; experiment: Fluorescence polarization competition binding assay (probe: compound of Example 57); conditions: 2 μM PCSK9, 50 nM compound of Example 57 as probe, overnight incubation; read-out: FP IC
Method: Relative compound affinities were determined using a competition binding assay with a fluorescence polarization format. Solution (49 μL) containing 2 μM PCSK9 and 50 nM compound of Example 57 in 20 mM HEPES (pH 7.5)/150 mM NaCl/1 mM CaCl2/0.005% P-20 was dispensed to wells of a 384-well black non-binding microplate before the addition of 1 μL of test compound or DMSO. After mixing, the plate was centrifuged and sealed for overnight incubation in the dark. The anisotropy signal was read using a fluorescence polarization protocol on a Perkin-Elmer Envision plate reader. The % inhibition was determined relative to the window defined by the DMSO control wells and wells containing 50 nM probe in the absence of PCSK9.

T1 sequence (Q8NBP7 153-692): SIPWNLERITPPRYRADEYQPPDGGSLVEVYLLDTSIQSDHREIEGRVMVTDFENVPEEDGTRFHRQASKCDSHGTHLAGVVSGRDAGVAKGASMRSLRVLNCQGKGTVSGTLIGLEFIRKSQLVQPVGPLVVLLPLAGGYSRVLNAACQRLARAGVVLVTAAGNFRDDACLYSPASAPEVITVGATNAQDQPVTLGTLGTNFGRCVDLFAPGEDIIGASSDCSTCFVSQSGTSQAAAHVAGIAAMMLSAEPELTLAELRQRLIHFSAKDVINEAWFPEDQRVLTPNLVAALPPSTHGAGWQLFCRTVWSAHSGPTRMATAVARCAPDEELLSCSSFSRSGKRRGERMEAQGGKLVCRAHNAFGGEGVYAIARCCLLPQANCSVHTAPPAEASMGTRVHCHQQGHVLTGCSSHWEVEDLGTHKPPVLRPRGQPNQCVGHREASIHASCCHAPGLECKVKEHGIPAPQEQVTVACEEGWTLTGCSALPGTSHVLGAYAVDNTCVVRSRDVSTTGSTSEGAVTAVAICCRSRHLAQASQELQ

ΔTm at 300 µM [1] [°C]	IC50 [2] [nM]	DSC ΔTm [1] [°C]	SMILES
6.18	532	–	COc1cc2c(cc1Oc1ccc(-c3ccc(CCC(=O)O)cc3)c(F)c1)[C@@](C)(CC(=O)Nc1nccs1)NCC2 [Example 32, (R)-3-(2′-fluoro-4′-((6-methoxy-1-methyl-1-(2-oxo-2-(thiazol-2-ylamino)ethyl)-1,2,3,4-tetrahydroisoquinolin-7-yl)oxy)-[1,1′-biphenyl]-4-yl)propanoic acid]
5.2	560	–	COc1cc2c(cc1Oc1ccc(-c3ccc(C(=O)O)cc3F)nc1)[C@@](C)(CC(=O)Nc1nccs1)NCC2 [Example 33, (R)-3-fluoro-4-(5-((6-methoxy-1-methyl-1-(2-oxo-2-(thiazol-2-ylamino)ethyl)-1,2,3,4-tetrahydroisoquinolin-7-yl)oxy)pyridin-2-yl)benzoic acid]
–	667	5.5	COc1cc2c(cc1Oc1ccc(-c3ccc(C(=O)O)cc3)cc1)[C@@](C)(CC(=O)Nc1nccs1)NCC2 [Example 34, (R)-4′-((6-methoxy-1-methyl-1-(2-oxo-2-(thiazol-2-ylamino)ethyl)-l,2,3,4-tetrahydroisoquinolin-7-yl)oxy)-[1,1′-biphenyl]-4-carboxylic acid]
5.29	681	–	COc1cc2c(cc1Oc1ccc(-c3ccc(C(=O)O)cc3)nc1)[C@@](C)(CC(=O)Nc1nccs1)NCC2 [Example 35, (R)-4-(5-((6-methoxy-1-methyl-1-(2-oxo-2-(thiazol-2-ylamino)ethyl)-1,2,3,4-tetrahydroisoquinolin-7-yl)oxy)pyridin-2-yl)benzoic acid]
5.56	767	–	COc1cc2c(cc1Oc1ccc(-c3ccc(CC(=O)O)cc3)cc1)[C@@](C)(CC(=O)Nc1nccs1)NCC2 [Example 36, (R)-2-(4′-((6-methoxy-1-methyl-1-(2-oxo-2-(thiazol-2-ylamino)ethyl)-1,2,3,4-tetrahydroisoquinolin-7-yl)oxy)-[1,1′-biphenyl]-4-yl)acetic acid]
5.63	615	–	C[C@]1(CC(=O)Nc2nccs2)NCCc2cc(OCCn3cc(C(N)CO)nn3)c(Oc3ccc(C(=O)O)c(F)c3)cc21 (stereo partly drawn) [Example 37, 4-(((1R)-6-(2-(4-(1-amino-2-hydroxyethyl)-1H-1,2,3-triazol-1-yl)ethoxy)-1-methyl-1-(2-oxo-2-(thiazol-2-ylamino)ethyl)-1,2,3,4-tetrahydroisoquinolin-7-yl)oxy)-2-fluorobenzoic acid]
7	267	–	CC1(c2cn(CCOc3cc4c(cc3Oc3ccc(C(=O)O)c(F)c3)[C@@](C)(CC(=O)Nc3nccs3)NCC4)nn2)CCOC1 (stereo partly drawn) [Example 38, 2-fluoro-4-(((1R)-1-methyl-6-(2-(4-(3-methyltetrahydrofuran-3-yl)-1H-1,2,3-triazol-1-yl)ethoxy)-1-(2-oxo-2-(thiazol-2-ylamino)ethyl)-1,2,3,4-tetrahydroisoquinolin-7-yl)oxy)benzoic acid]
5.98	292	–	Cc1nnc(-c2cn(CCOc3cc4c(cc3Oc3ccc(C(=O)O)c(F)c3)[C@@](C)(CC(=O)Nc3nccs3)NCC4)nn2)o1 [Example 39, (R)-2-fluoro-4-((1-methyl-6-(2-(4-(5-methyl-1,3,4-oxadiazol-2-yl)-1H-1,2,3-triazol-1-yl)ethoxy)-1-(2-oxo-2-(thiazol-2-ylamino)ethyl)-1,2,3,4-tetrahydroisoquinolin-7-yl)oxy)benzoic acid]
6.75	302	–	Cc1cn(-c2ccc(-c3cn(CCOc4cc5c(cc4Oc4ccc(C(=O)O)c(F)c4)[C@@](C)(CC(=O)Nc4nccs4)NCC5)nn3)cc2C)cn1 [Example 40, (R)-2-fluoro-4-((1-methyl-6-(2-(4-(3-methyl-4-(4-methyl-1H-imidazol-1-yl)phenyl)-1H-1,2,3-triazol-1-yl)ethoxy)-1-(2-oxo-2-(thiazol-2-ylamino)ethyl)-1,2,3,4-tetrahydroisoquinolin-7-yl)oxy)benzoic acid]
7.18	354	–	COCCOCc1cn(CCOc2cc3c(cc2Oc2ccc(C(=O)O)c(F)c2)[C@@](C)(CC(=O)Nc2nccs2)NCC3)nn1 [Example 41, (R)-2-fluoro-4-((6-(2-(4-((2-methoxyethoxy)methyl)-1H-1,2,3-triazol-1-yl)ethoxy)-1-methyl-1-(2-oxo-2-(thiazol-2-ylamino)ethyl)-1,2,3,4-tetrahydroisoquinolin-7-yl)oxy)benzoic acid]
5.97	389	–	C[C@]1(CC(=O)Nc2nccs2)NCCc2cc(OCCn3cc(CN4CCNC4=O)nn3)c(Oc3ccc(C(=O)O)c(F)c3)cc21 [Example 42, (R)-2-fluoro-4-((1-methyl-1-(2-oxo-2-(thiazol-2-ylamino)ethyl)-6-(2-(4-((2-oxoimidazolidin-1-yl)methyl)-1H-1,2,3-triazol-1-yl)ethoxy)-1,2,3,4-tetrahydroisoquinolin-7-yl)oxy)benzoic acid]
5.45	418	–	COc1ccc(-n2nc(-c3cn(CCOc4cc5c(cc4Oc4ccc(C(=O)O)c(F)c4)[C@@](C)(CC(=O)Nc4nccs4)NCC5)nn3)cc(C)c2=O)cc1 [Example 43, (R)-2-fluoro-4-((6-(2-(4-(1-(4-methoxyphenyl)-5-methyl-6-oxo-1,6-dihydropyridazin-3-yl)-1H-1,2,3-triazol-1-yl)ethoxy)-1-methyl-1-(2-oxo-2-(thiazol-2-ylamino)ethyl)-1,2,3,4-tetrahydroisoquinolin-7-yl)oxy)benzoic acid]
6.89	426	–	C[C@]1(CC(=O)Nc2nccs2)NCCc2cc(OCCn3cc(CCCCCCCCC(=O)O)nn3)c(Oc3ccc(C(=O)O)c(F)c3)cc21 [Example 44, (R)-4-((6-(2-(4-(8-carboxyoctyl)-1H-1,2,3-triazol-1-yl)ethoxy)-1-methyl-1-(2-oxo-2-(thiazol-2-ylamino)ethyl)-1,2,3,4-tetrahydroisoquinolin-7-yl)oxy)-2-fluorobenzoic acid]
6.96	530	–	Cc1ccc(-c2cn(CCOc3cc4c(cc3Oc3ccc(C(=O)O)c(F)c3)[C@@](C)(CC(=O)Nc3nccs3)NCC4)nn2)cn1 [Example 45, (R)-2-fluoro-4-((1-methyl-6-(2-(4-(6-methylpyridin-3-yl)-1H-1,2,3-triazol-1-yl)ethoxy)-1-(2-oxo-2-(thiazol-2-ylamino)ethyl)-1,2,3,4-tetrahydroisoquinolin-7-yl)oxy)benzoic acid]
6.48	602	–	CC(=O)NCc1cn(CCOc2cc3c(cc2Oc2ccc(C(=O)O)c(F)c2)[C@@](C)(CC(=O)Nc2nccs2)NCC3)nn1 [Example 46]
6.27	646	–	C[C@]1(CC(=O)Nc2nccs2)NCCc2cc(OCCn3cc(COc4ccccc4)nn3)c(Oc3ccc(C(=O)O)c(F)c3)cc21 [Example 47, (R)-2-fluoro-4-((1-methyl-1-(2-oxo-2-(thiazol-2-ylamino)ethyl)-6-(2-(4-(phenoxymethyl)-1H-1,2,3-triazol-1-yl)ethoxy)-1,2,3,4-tetrahydroisoquinolin-7-yl)oxy)benzoic acid]
6.02	678	–	C[C@]1(CC(=O)Nc2nccs2)NCCc2cc(OCCn3cc(C4(C(=O)O)CC4)nn3)c(Oc3ccc(C(=O)O)c(F)c3)cc21 [Example 48, (R)-4-((6-(2-(4-(1-carboxycyclopropyl)-1H-1,2,3-triazol-1-yl)ethoxy)-1-methyl-1-(2-oxo-2-(thiazol-2-ylamino)ethyl)-1,2,3,4-tetrahydroisoquinolin-7-yl)oxy)-2-fluorobenzoic acid]
